target: T1, Human Glucocorticoid Receptor (Homo sapiens, UniProt P04150); experiment: Competition Binding in IM-9 Human Glucocorticoid Receptor (GR IM-9); conditions: cytosol from IM-9 cell line, 1.5 nM [3H]-Dexamethasone, 4° C. for 6 hours
T1 construct: endogenous in cells; host or cells: cytosol from IM-9 cell line
T1 sequence (P04150 1-777): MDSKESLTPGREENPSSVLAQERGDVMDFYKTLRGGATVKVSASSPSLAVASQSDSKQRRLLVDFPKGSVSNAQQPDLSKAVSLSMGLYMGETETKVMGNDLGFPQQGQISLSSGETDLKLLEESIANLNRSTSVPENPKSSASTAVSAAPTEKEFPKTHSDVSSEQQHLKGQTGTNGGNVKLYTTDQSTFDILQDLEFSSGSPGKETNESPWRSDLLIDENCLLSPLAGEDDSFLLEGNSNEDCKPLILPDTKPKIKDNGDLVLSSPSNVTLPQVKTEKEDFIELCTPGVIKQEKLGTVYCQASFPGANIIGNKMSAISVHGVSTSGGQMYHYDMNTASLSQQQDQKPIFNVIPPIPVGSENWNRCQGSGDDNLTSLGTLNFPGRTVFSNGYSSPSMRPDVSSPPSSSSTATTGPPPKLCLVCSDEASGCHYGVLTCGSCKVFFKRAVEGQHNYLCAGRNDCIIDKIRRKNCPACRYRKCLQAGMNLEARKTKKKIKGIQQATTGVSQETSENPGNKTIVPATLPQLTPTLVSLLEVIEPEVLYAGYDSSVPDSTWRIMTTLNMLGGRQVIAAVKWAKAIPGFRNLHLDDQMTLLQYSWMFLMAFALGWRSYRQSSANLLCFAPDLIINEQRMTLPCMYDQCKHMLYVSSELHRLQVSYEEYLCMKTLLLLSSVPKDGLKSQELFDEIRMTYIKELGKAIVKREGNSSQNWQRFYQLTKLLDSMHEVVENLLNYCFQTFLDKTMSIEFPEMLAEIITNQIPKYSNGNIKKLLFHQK
Method: Competition Binding in IM-9 Human Glucocorticoid Receptor (GR IM-9)
Glucocorticoid receptor competition binding assays were carried out in a polypropilene 96-well plate. In each well was incubated 100 μg of cytosol from IM-9 cell line, 1.5 nM [3H]-Dexamethasone (71 Ci/mmol, 1 mCi/ml, Perkin Elmer NET1192001MC) and compounds studied and standard. Non-specific binding was determined in the presence of Triamcinolone 10 μM (Sigma Aldrich T6376).
The reaction mixture (Vt: 200 μl/well) was incubated at 4° C. for 6 hours, 180 μL was transferred to GF/B 96-well plate (Millipore, Madrid, Spain) pretreated with 0.5% of PEI and treated with binding buffer (TES 10 mM, sodium molybdate 10 mM, EDTA 1 mM, pH 7.4, 2-mercaptoethanol 20 mM, Glycerol 10%) after was filtered and washed six times with 250 μl wash buffer (TES 10 mM, sodium molybdate 10 mM, EDTA 1 mM, pH 7.4, 2-mercaptoethanol 20 mM Glycerol 10%), before measuring in a microplate beta scintillation counter (Microbeta Trilux, PerkinElmer, Madrid, Spain).

`COC(=O)C1=C(COCCN)NC(C)=C(C(C)=O)C1c1csc2ccccc12` (stereo not drawn) [Example C114, Methyl 5-acetyl-2-((2-aminoethoxy)methyl)-4-(benzo[b]thiophen-3-yl)-6-methyl-1,4-dihydropyridine-3-carboxylate] and `COC(=O)C1=C(COCCN)NC(C)=C(C(C)=O)C1c1csc2c(Br)cccc12` (stereo not drawn) [Example C115, Methyl 5-acetyl-2-((2-aminoethoxy)methyl)-4-(7-bromobenzo[b]thiophen-3-yl)-6-methyl-1,4-dihydropyridine-3-carboxylate] cannot be ordered by IC50: no less than 1000 nM for the first, no less than 1000 nM for the second.

First: COC(=O)C1=C(COCCN)NC(C)=C(C(C)=O)C1c1csc2c(C#N)cccc12 (stereo not drawn) [Example C116, Methyl 5-acetyl-2-((2-aminoethoxy)methyl)-4-(7-cyanobenzo[b]thiophen-3-yl)-6-methyl-1,4-dihydropyridine-3-carboxylate]
Second: COC(=O)C1=C(N)NC(C)=C(C(C)=O)C1c1csc2c(C#N)cccc12 (stereo not drawn) [Example D5, Methyl 5-acetyl-2-amino-4-(7-cyanobenzo[b]thiophen-3-yl)-6-methyl-1,4-dihydropyridine-3-carboxylate]
The IC50 of the first is higher: 100 to 1000 nM for the first, less than 100 nM for the second. The second is the more potent here.

`CC(=O)C1=C(C)NC(N)=C(C(=O)OC2CCCC2)C1c1csc2c(C#N)cccc12` (stereo not drawn) [Example D8, Cyclopentyl 5-acetyl-2-amino-4-(7-cyanobenzo[b]thiophen-3-yl)-6-methyl-1,4-dihydropyridine-3-carboxylate] and `CC(=O)C1=C(C)NC(N)=C(C(=O)OCC2CCCC2)C1c1csc2c(C#N)cccc12` (stereo not drawn) [Example D16, Cyclopentylmethyl 5-acetyl-2-amino-4-(7-cyanobenzo[b]thiophen-3-yl)-6-methyl-1,4-dihydropyridine-3-carboxylate] cannot be ordered by IC50: less than 100 nM for the first, less than 100 nM for the second.

`CC(=O)C1=C(C)NC(N)=C(C(=O)OCC2CC2)C1c1csc2c(C#N)cccc12` (stereo not drawn) [Example D10, Cyclopropylmethyl 5-acetyl-2-amino-4-(7-cyanobenzo[b]thiophen-3-yl)-6-methyl-1,4-dihydropyridine-3-carboxylate] and `COC(=O)C1=C(C)NC(N)=C(C(=O)OCC2CC2)C1c1csc2c(C#N)cccc12` (stereo not drawn) [Example D17, 3-(cyclopropylmethyl) 5-methyl 2-amino-4-(7-cyanobenzo[b]thiophen-3-yl)-6-methyl-1,4-dihydropyridine-3,5-dicarboxylate] cannot be ordered by IC50: less than 100 nM for the first, less than 100 nM for the second.

`CC(=O)C1=C(C)NC(N)=C(C(=O)OC2CCC(F)(F)CC2)C1c1csc2c(C#N)cccc12` (stereo not drawn) [Example D11, 4,4-difluorocyclohexyl 5-acetyl-2-amino-4-(7-cyanobenzo[b]thiophen-3-yl)-6-methyl-1,4-dihydropyridine-3-carboxylate] and `CC(=O)C1=C(C)NC(N)=C(C(=O)OCc2ccc(F)cc2)C1c1csc2c(C#N)cccc12` (stereo not drawn) [Example D13, 4-fluorobenzyl 5-acetyl-2-amino-4-(7-cyanobenzo[b]thiophen-3-yl)-6-methyl-1,4-dihydropyridine-3-carboxylate] cannot be ordered by IC50: less than 100 nM for the first, less than 100 nM for the second.

`COC(=O)C1=C(N)NC(C)=C(C#N)C1c1csc2c(C#N)cccc12` (stereo not drawn) [Example D12, Methyl 2-amino-5-cyano-4-(7-cyanobenzo[b]thiophen-3-yl)-6-methyl-1,4-dihydropyridine-3-carboxylate] and `C#CCOC(=O)C1=C(N)NC(C)=C(C(=O)OC)C1c1csc2c(C#N)cccc12` (stereo not drawn) [Example D55, 5-Methyl 3-prop-2-yn-1-yl 2-amino-4-(7-cyanobenzo[b]thiophen-3-yl)-6-methyl-1,4-dihydropyridine-3,5-dicarboxylate] cannot be ordered by IC50: less than 100 nM for the first, less than 100 nM for the second.

`COC(=O)C1=C(N)NC(C)=C(C(C)=O)C1c1csc2ncc(F)cc12` (stereo not drawn) [Example D14, Methyl 5-acetyl-2-amino-4-(5-fluorothieno[2,3-b]pyridin-3-yl)-6-methyl-1,4-dihydropyridine-3-carboxylate] and `COC(=O)C1=C(NC(C)=O)NC(C)=C(C(C)=O)C1c1csc2ncc(F)cc12` (stereo not drawn) [Example D15, Methyl 2-acetamido-5-acetyl-4-(5-fluorothieno[2,3-b]pyridin-3-yl)-6-methyl-1,4-dihydropyridine-3-carboxylate] cannot be ordered by IC50: no less than 1000 nM for the first, 100 to 1000 nM for the second.

`COC(=O)C1=C(N)NC(C2CC2)=C(C(=O)OC)C1c1csc2c(C#N)cccc12` (stereo not drawn) [Example D18, Dimethyl 2-amino-4-(7-cyanobenzo[b]thiophen-3-yl)-6-cyclopropyl-1,4-dihydropyridine-3,5-dicarboxylate] and `COC(=O)C1=C(C2CC2)NC(N)=C(C(=O)OCC2CC2)C1c1csc2c(C#N)cccc12` (stereo not drawn) [Example D19, 3-(cyclopropylmethyl) 5-methyl 2-amino-4-(7-cyanobenzo[b]thiophen-3-yl)-6-cyclopropyl-1,4-dihydropyridine-3,5-dicarboxylate] cannot be ordered by IC50: less than 100 nM for the first, less than 100 nM for the second.

First: COC(=O)C1=C(N)NC(N)=C(C(=O)OC)C1c1csc2c(C#N)cccc12 [Example D20, dimethyl 2,6-diamino-4-(7-cyanobenzo[b]thiophen-3-yl)-1,4-dihydropyridine-3,5-dicarboxylate]
Second: COC(=O)C1=C(C)NC(N)=C(C(=O)OCC(F)(F)F)C1c1csc2c(C#N)cccc12 (stereo not drawn) [Example D50, 5-Methyl 3-(2,2,2-trifluoroethyl) 2-amino-4-(7-cyanobenzo[b]thiophen-3-yl)-6-methyl-1,4-dihydropyridine-3,5-dicarboxylate]
The IC50 of the first is higher: 100 to 1000 nM for the first, less than 100 nM for the second. The second is the more potent here.

`COC(=O)C1=C(N)NC(C2CC2)=C(C(=O)OCC2CC2)C1c1csc2c(C#N)cccc12` (stereo not drawn) [Example D21, 5-(cyclopropylmethyl) 3-methyl 2-amino-4-(7-cyanobenzo[b]thiophen-3-yl)-6-cyclopropyl-1,4-dihydropyridine-3,5-dicarboxylate] and `COC(=O)C1=C(C(F)(F)F)NC(N)=C(C(=O)OCC2CC2)C1c1csc2c(C#N)cccc12` (stereo not drawn) [Example D56, 3-(Cyclopropylmethyl) 5-methyl 2-amino-4-(7-cyanobenzo[b]thiophen-3-yl)-6-(trifluoromethyl)-1,4-dihydropyridine-3,5-dicarboxylate] cannot be ordered by IC50: less than 100 nM for the first, less than 100 nM for the second.

Compared with `CC(=O)C1=C(C)NC(N)=C(C(=O)OCC2CC2)C1c1csc2cc(C#N)ccc12` (stereo not drawn) [Example D28, Cyclopropylmethyl 5-acetyl-2-amino-4-(6-cyanobenzo[b]thiophen-3-yl)-6-methyl-1,4-dihydropyridine-3-carboxylate], `COC(=O)C1=C(C)NC(N)=C(C(=O)OCC2CC2)C1c1csc2c(C#N)c(Cl)ccc12` (stereo not drawn) [Example D52, 3-(Cyclopropylmethyl) 5-methyl 2-amino-4-(6-chloro-7-cyanobenzo[b]thiophen-3-yl)-6-methyl-1,4-dihydropyridine-3,5-dicarboxylate] is lower in IC50: 100 to 1000 nM for the first, less than 100 nM for the second.

`COC(=O)C1=C(C)NC(N)=C(C(=O)OCC2CC2)C1c1csc2c(C#N)ccnc12` (stereo not drawn) [Example D44, 3-(Cyclopropylmethyl) 5-methyl 2-amino-4-(7-cyanothieno[3,2-b]pyridin-3-yl)-6-methyl-1,4-dihydropyridine-3,5-dicarboxylate] and `COC(=O)C1=C(C)NC(N)=C(C(=O)OCC2CC2)C1c1csc2c(C#N)cc(C#N)cc12` (stereo not drawn) [Example D48, 3-(Cyclopropylmethyl) 5-methyl 2-amino-4-(5,7-dicyanobenzo[b]thiophen-3-yl)-6-methyl-1,4-dihydropyridine-3,5-dicarboxylate] cannot be ordered by IC50: less than 100 nM for the first, less than 100 nM for the second.

`CC1=C(C(=O)OCC(F)(F)F)C(c2csc3c(C#N)cccc23)C(C(=O)OCC2CC2)=C(N)N1` (stereo not drawn) [Example D51, 3-(Cyclopropylmethyl) 5-(2,2,2-trifluoroethyl) 2-amino-4-(7-cyanobenzo[b]thiophen-3-yl)-6-methyl-1,4-dihydropyridine-3,5-dicarboxylate] and `COC(=O)C1=C(C)NC(N)=C(C(=O)OCC2CC2)C1c1csc2c(C#N)c(C(F)(F)F)ccc12` (stereo not drawn) [Example D54, 3-(Cyclopropylmethyl) 5-methyl 2-amino-4-(7-cyano-6-(trifluoromethyl)benzo[b]thiophen-3-yl)-6-methyl-1,4-dihydropyridine-3,5-dicarboxylate] cannot be ordered by IC50: less than 100 nM for the first, less than 100 nM for the second.

In the case of `COC(=O)C1=C(C)NC(N)=C(C(=O)OCC(C)(C)F)C1c1csc2c(C#N)cccc12` (stereo not drawn) [Example D53, 3-(2-Fluoro-2-methylpropyl) 5-methyl 2-amino-4-(7-cyanobenzo[b]thiophen-3-yl)-6-methyl-1,4-dihydropyridine-3,5-dicarboxylate], the IC50 is reported as less than 100 nM.
